From patent US20130281544A1, “HEPATOPROTECTANT ACTIVITY OF GARCINOL” (priority 2010, published 2013)

Tested on: carbon tetrachloride induced liver damage in rats
Test: Bilirubin and serum enzymes ALT, AST, ALP in carbon tetrachloride induced liver damage
Type: in vivo, Male Wistar Rats
Conditions: CCl4; for ALP percent change / ALT percent change / AST percent change / Bilirubin percent change / ALP / ALT / AST / Bilirubin: serum; for ALP / ALT / AST / Bilirubin: Mean ± SE
Experimental: Doses of Garcinol (GC) used for the study: 1.25, 2.5, 5, 10 mg/kg p.o.
Standard drug: Silymarin (50 mg/kg) p.o.
Liver injury was induced by administration of carbon tetrachloride (CCl4) mixed with liquid paraffin (5 fold dilution). Animals were given single dose of CCl4 at 1 ml/kg, p.o. followed by the administration of garcinol (Table 2). [(i) Bramanti G, Murmann W, Pierini P and Comporti M (1978). Effect of cicloxilic acid on CCl4-induced liver injury. Drug Research 28: 1112-1217. (ii) B Singh, A K Saxena, B K Chandan, K K Anand (1998). Hepatoprotective activity of Verbenalin on experimental liver damage in rodents. Fitoterapia LXIX 2: 135-140. (iii) B. K. Chandan, A. K. Sharma, K. K. Anand Boerhaavia difiusa: A study of its hepatoprotective activity. Journal of Ethnopharmacology, Volume 31, Issue 3, March 1991, Pages 299-307].
Blood was collected from the retro-orbital plexus of experimental animals and no anti-coagulant was added. Blood was made to stand at room temperature for 1 hour. It was then centrifuged and clear serum was separated. The serum was then stored for analysis. Reference: (Magari et al., 2004).
(ASPARTATE AMINOTRANSFERASE and ALANINE AMINOTRANSFERASE), Reference: Ritman S, Frankel S, (1957). A colorimeteric method for the determination of serum glutamic oxaloacetic and glutamic pyruvic transaminases. American Journal of Clinical Pathology; 28: 56-63.
0.2 ml of serum, collected from test and control samples, was mixed with 1.0 ml of buffer solution and incubated for 60 min at 37° C. in a water bath. After the addition of 1.0 ml of chromogen solution, the samples were kept at room temperature for 20 minutes for the reaction to proceed and 10 ml NaOH was added. The optical density was red at 546 nm after 5 min. To the blank, serum was added after the addition of chromogen solution.
(ALKALINE PHOSPHATASE), Reference: Klaus Walter and Schutt C. (1974). Acid and alkaline phosphatase in serum. In: Methods of Enzymatic Analysis. Eds. Hans Ulrich Bergmeyer, Verlag ChemieWeinheim, Academic press, Inc. New York, 2nd Edition, Vol. 2, pp. 855-64.
Alkaline phosphatase activity measurement is based on the ability of the enzyme to hydrolyze p-nitrophenol phosphate under alkaline conditions. The cleaved product p-nitrophenol is yellow in alkaline solution and is measured at 400-420 nm (Klaus and Schutt, 1974). 2.0 ml of buffered substrate was taken in the tubes ‘Test’ ‘Control’ and ‘Blank’ followed by addition of serum and distilled water (0.1 ml) in ‘Test’ and ‘Blank’ respectively and incubated in a water bath for 30 minutes at 25° C. After incubation sodium hydroxide was added (0.25 N, 2 ml) to all the tubes, which was followed by serum (0.1 ml) to the tubes marked ‘Control’. The yellow colour formed was measured spectrophotometrically against blank at 410 nm.
[BILIRUBIN (BRBN)], Reference: Malloy H T and Evelyn K A (1937). The determination of bilirubin with photoelectric colorimeter. Journal of Biological Chemistry 119: 481-490.
Serum bilirubin was estimated by the method of Malloy and Evelyn (1937). In the two sets of test tubes marked ‘Test’ and ‘Control’, serum (0.2 ml) and distilled water (1.8 ml) were added. To the tubes marked ‘Test’ and ‘Standard’ diazo reagent (0.5 ml) was added. To the test tubes marked ‘Control’ and ‘Blank’ diazo blank (0.5 ml) was added. Finally methanol (2.5 ml) was added into each test tube. The tubes were mixed and allowed to stand for 30 minutes in dark. The tubes were read after 10 minutes at 540 nm.

C=C(C)[C@@H](CC=C(C)C)C[C@@]12C[C@@H](CC=C(C)C)C(C)(C)[C@@](CC=C(C)C)(C(=O)C(C(=O)c3ccc(O)c(O)c3)=C1O)C2=O [Garcinol]
Average Protection (1.25 mg/kg p.o.): 12.63% | Average Protection (2.50 mg/kg p.o.): 24.99% | Average Protection (5.00 mg/kg p.o.): 38.07% | Average Protection (10.00 mg/kg p.o.): 36.87% | ALP percent change (1.25 mg/kg p.o.): (10.79) % | ALT percent change (1.25 mg/kg p.o.): (12.84) % | AST percent change (1.25 mg/kg p.o.): (14.95) % | Bilirubin percent change (1.25 mg/kg p.o.): (11.96) % | ALP (1.25 mg/kg p.o.): 78.49 ± 6.58 μmol/min/lt | ALT (1.25 mg/kg p.o.): 1272.50 ± 109.19 μmol/min/lt | AST (1.25 mg/kg p.o.): 746.81 ± 36.93 μmol/min/lt | Bilirubin (1.25 mg/kg p.o.): 1.03 ± 0.04 mg % | ALP percent change (2.50 mg/kg p.o.): (20.08) % | ALT percent change (2.50 mg/kg p.o.): (29.65) % | AST percent change (2.50 mg/kg p.o.): (26.32) % | Bilirubin percent change (2.50 mg/kg p.o.): (23.93) % | ALP (2.50 mg/kg p.o.): 70.32 ± 3.89 μmol/min/lt | ALT (2.50 mg/kg p.o.): 1027.07 ± 68.26 μmol/min/lt | AST (2.50 mg/kg p.o.): 646.90 ± 50.53 μmol/min/lt | Bilirubin (2.50 mg/kg p.o.): 0.89 ± 0.05 mg % | ALP percent change (5.00 mg/kg p.o.): (32.73) % | ALT percent change (5.00 mg/kg p.o.): (43.24) % | AST percent change (5.00 mg/kg p.o.): (42.98) % | Bilirubin percent change (5.00 mg/kg p.o.): (33.33) % | ALP (5.00 mg/kg p.o.): 59.19 ± 4.45 μmol/min/lt | ALT (5.00 mg/kg p.o.): 828.59 ± 46.56 μmol/min/lt | AST (5.00 mg/kg p.o.): 500.66 ± 49.22 μmol/min/lt | Bilirubin (5.00 mg/kg p.o.): 0.78 ± 0.04 mg % | ALP percent change (10.00 mg/kg p.o.): (32.15) % | ALT percent change (10.00 mg/kg p.o.): (38.94) % | AST percent change (10.00 mg/kg p.o.): (40.50) % | Bilirubin percent change (10.00 mg/kg p.o.): (35.89) % | ALP (10.00 mg/kg p.o.): 59.70 ± 3.69 μmol/min/lt | ALT (10.00 mg/kg p.o.): 891.36 ± 45.72 μmol/min/lt | AST (10.00 mg/kg p.o.): 522.43 ± 57.50 μmol/min/lt | Bilirubin (10.00 mg/kg p.o.): 0.75 ± 0.04 mg %
